Results as given in the NIST ThermoML archive (doi:10.1021/je0604277).
± gives the expanded uncertainty stated by the source.

Assays:
[1] = 298.15 K; 101 kPa; Liquid mixture 1; rotated drop method
[2] = for viscosity: 101.33 kPa, Liquid, rotational viscometer; for surface tension liquid-gas: Pendant drop shape

SMILES: CCCCn1cc[n+](C)c1.F[P-](F)(F)(F)(F)F [1-butyl-3-methylimidazolium hexafluorophosphate] + CCCCCO
- interfacial tension [1]: 5.325 ± 0.11 mN/m

SMILES: CCCCn1cc[n+](C)c1.F[P-](F)(F)(F)(F)F [1-butyl-3-methylimidazolium hexafluorophosphate] + CCCCCCCC
- interfacial tension [1]: 14.29 ± 0.28 mN/m

SMILES: CCCCn1cc[n+](C)c1.F[P-](F)(F)(F)(F)F [1-butyl-3-methylimidazolium hexafluorophosphate] + CCCCCCCO
- interfacial tension [1]: 6.41 ± 0.13 mN/m

SMILES: CCCCn1cc[n+](C)c1.F[P-](F)(F)(F)(F)F [1-butyl-3-methylimidazolium hexafluorophosphate] + CCCCC
- interfacial tension [1]: 13.65 ± 0.27 mN/m

SMILES: CCCCCCCCCCCCO [dodecan-1-ol] + CCCCn1cc[n+](C)c1.F[P-](F)(F)(F)(F)F
- interfacial tension [1]: 8.788 ± 0.17 mN/m

SMILES: CCCCn1cc[n+](C)c1.F[P-](F)(F)(F)(F)F [1-butyl-3-methylimidazolium hexafluorophosphate] + CCOC(C)=O
- interfacial tension [1]: 11.69 ± 0.23 mN/m

SMILES: CCCCn1cc[n+](C)c1.F[P-](F)(F)(F)(F)F [1-butyl-3-methylimidazolium hexafluorophosphate] + C1CCCCC1
- interfacial tension [1]: 13.15 ± 0.26 mN/m

SMILES: C=Cc1ccccc1 [styrene] + CCCCn1cc[n+](C)c1.F[P-](F)(F)(F)(F)F
- interfacial tension [1]: 1.793 ± 0.036 mN/m

SMILES: CCCCn1cc[n+](C)c1.F[P-](F)(F)(F)(F)F [1-butyl-3-methylimidazolium hexafluorophosphate] + CCCCCCO
- interfacial tension [1]: 5.556 ± 0.11 mN/m

SMILES: CCCCn1cc[n+](C)c1.F[P-](F)(F)(F)(F)F [1-butyl-3-methylimidazolium hexafluorophosphate] + CCCCOC(C)=O
- interfacial tension [1]: 0.4344 ± 0.0087 mN/m

SMILES: CCCCn1cc[n+](C)c1.F[P-](F)(F)(F)(F)F [1-butyl-3-methylimidazolium hexafluorophosphate]
- viscosity ([2]; 288.15 K): 400.2 ± 16 mPa·s
- viscosity ([2]; 293.15 K): 294 ± 12 mPa·s
- viscosity ([2]; 296.15 K): 245.8 ± 10 mPa·s
- surface tension liquid-gas ([2]; 298.15 K): 53.1 ± 2.5 mN/m
- viscosity ([2]; 298.15 K): 217.9 ± 8.6 mPa·s
- viscosity ([2]; 301.15 K): 182.7 ± 7.4 mPa·s
- viscosity ([2]; 303.15 K): 162.9 ± 6.5 mPa·s
- viscosity ([2]; 305.15 K): 145.1 ± 5.6 mPa·s
- viscosity ([2]; 308.15 K): 123.2 ± 4.8 mPa·s
- viscosity ([2]; 311.15 K): 104 ± 4.1 mPa·s
- viscosity ([2]; 313.15 K): 95 ± 3.6 mPa·s

SMILES: CCCCn1cc[n+](C)c1.F[P-](F)(F)(F)(F)F [1-butyl-3-methylimidazolium hexafluorophosphate] + CCc1ccccc1
- interfacial tension [1]: 3.995 ± 0.08 mN/m

SMILES: CCCCn1cc[n+](C)c1.F[P-](F)(F)(F)(F)F [1-butyl-3-methylimidazolium hexafluorophosphate] + CCCCO
- interfacial tension [1]: 4.706 ± 0.094 mN/m

SMILES: CCCCn1cc[n+](C)c1.F[P-](F)(F)(F)(F)F [1-butyl-3-methylimidazolium hexafluorophosphate] + CCO
- interfacial tension [1]: 1.222 ± 0.024 mN/m

SMILES: CCCCn1cc[n+](C)c1.F[P-](F)(F)(F)(F)F [1-butyl-3-methylimidazolium hexafluorophosphate] + O
- interfacial tension [1]: 10.06 ± 0.2 mN/m

SMILES: CCCCn1cc[n+](C)c1.F[P-](F)(F)(F)(F)F [1-butyl-3-methylimidazolium hexafluorophosphate] + CCC(=O)O
- interfacial tension [1]: 3.292 ± 0.066 mN/m

SMILES: CCCCn1cc[n+](C)c1.F[P-](F)(F)(F)(F)F [1-butyl-3-methylimidazolium hexafluorophosphate] + CCCCCCCCO
- interfacial tension [1]: 7.385 ± 0.15 mN/m

SMILES: CCCCn1cc[n+](C)c1.F[P-](F)(F)(F)(F)F [1-butyl-3-methylimidazolium hexafluorophosphate] + CCCCCCCCCCO
- interfacial tension [1]: 7.516 ± 0.15 mN/m

SMILES: CCCCn1cc[n+](C)c1.F[P-](F)(F)(F)(F)F [1-butyl-3-methylimidazolium hexafluorophosphate] + c1ccccc1
- interfacial tension [1]: 2.209 ± 0.044 mN/m

SMILES: CCCCn1cc[n+](C)c1.F[P-](F)(F)(F)(F)F [1-butyl-3-methylimidazolium hexafluorophosphate] + C=CCCCC
- interfacial tension [1]: 10.42 ± 0.21 mN/m

SMILES: CCCCn1cc[n+](C)c1.F[P-](F)(F)(F)(F)F [1-butyl-3-methylimidazolium hexafluorophosphate] + CCCCCC
- interfacial tension [1]: 13.39 ± 0.27 mN/m

SMILES: CC(C)=Cn1cc[n+](C)c1.F[B-](F)(F)F [1-isobutenyl-3-methylimidazolium tetrafluoroborate]
- viscosity ([2]; 288.15 K): 214.2 ± 8.2 mPa·s
- viscosity ([2]; 293.15 K): 158.7 ± 6.5 mPa·s
- viscosity ([2]; 296.15 K): 133.4 ± 5.4 mPa·s
- surface tension liquid-gas ([2]; 298.15 K): 51.8 ± 2.2 mN/m
- viscosity ([2]; 298.15 K): 118.5 ± 4.6 mPa·s
- viscosity ([2]; 301.15 K): 100.4 ± 4 mPa·s
- viscosity ([2]; 303.15 K): 88.9 ± 3.5 mPa·s
- viscosity ([2]; 305.15 K): 79.8 ± 3.1 mPa·s
- viscosity ([2]; 308.15 K): 68 ± 2.6 mPa·s
- viscosity ([2]; 311.15 K): 58.6 ± 2.2 mPa·s
- viscosity ([2]; 313.15 K): 53.4 ± 2 mPa·s

SMILES: CCCCn1cc[n+](C)c1.F[P-](F)(F)(F)(F)F [1-butyl-3-methylimidazolium hexafluorophosphate] + Cc1ccccc1
- interfacial tension [1]: 3 ± 0.06 mN/m
